What all share (format): cell-based
Assay [1] has as its target T1, KCC2 (Rattus norvegicus, UniProt Q63633).
T1 construct: gene Slc12a5; KCC2b isoform expressed in T-REx-293 cells
T1 sequence (Q63633 43-1139 limits assumed): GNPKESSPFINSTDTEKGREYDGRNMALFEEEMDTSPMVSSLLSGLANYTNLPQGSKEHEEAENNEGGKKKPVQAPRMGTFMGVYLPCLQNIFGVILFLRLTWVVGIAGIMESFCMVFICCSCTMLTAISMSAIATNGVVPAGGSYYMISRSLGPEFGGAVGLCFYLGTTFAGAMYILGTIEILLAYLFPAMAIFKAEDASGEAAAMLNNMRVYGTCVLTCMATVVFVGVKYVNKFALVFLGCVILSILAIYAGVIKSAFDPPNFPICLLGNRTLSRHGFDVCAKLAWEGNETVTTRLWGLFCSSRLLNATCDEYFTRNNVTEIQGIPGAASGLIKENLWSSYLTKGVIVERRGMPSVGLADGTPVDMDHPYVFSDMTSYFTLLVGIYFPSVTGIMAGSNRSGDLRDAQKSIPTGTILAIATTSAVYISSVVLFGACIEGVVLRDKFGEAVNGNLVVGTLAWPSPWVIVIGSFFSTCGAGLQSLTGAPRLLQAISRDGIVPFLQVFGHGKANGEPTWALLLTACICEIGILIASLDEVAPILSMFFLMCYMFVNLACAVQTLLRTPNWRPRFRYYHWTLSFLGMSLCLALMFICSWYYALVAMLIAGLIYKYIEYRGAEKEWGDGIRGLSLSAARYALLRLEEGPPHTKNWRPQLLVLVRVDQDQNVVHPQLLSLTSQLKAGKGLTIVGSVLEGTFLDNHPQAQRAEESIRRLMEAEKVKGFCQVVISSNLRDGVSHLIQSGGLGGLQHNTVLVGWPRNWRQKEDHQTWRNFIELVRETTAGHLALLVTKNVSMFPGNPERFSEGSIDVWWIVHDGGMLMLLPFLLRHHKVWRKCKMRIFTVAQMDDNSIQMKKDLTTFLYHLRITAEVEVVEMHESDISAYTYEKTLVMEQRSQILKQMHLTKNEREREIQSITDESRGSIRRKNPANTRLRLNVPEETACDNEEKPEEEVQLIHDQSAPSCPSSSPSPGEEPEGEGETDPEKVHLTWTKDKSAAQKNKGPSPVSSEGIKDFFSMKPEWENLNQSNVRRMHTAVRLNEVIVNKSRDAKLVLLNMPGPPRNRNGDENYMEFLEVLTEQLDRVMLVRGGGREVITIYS
In words: SuperClomeleon Cl- flux assay in HEK-293 overexpressing KCC2.

Assay [2] concerns the target T1, KCC2. As to the kind of experiment: SuperClomeleon Cl- flux assay in HEK-293 with and without KCC2; Tl+ and […]+ influx.
For assay [3], the target named is T1, KCC2. As to the kind of experiment: SuperClomeleon Cl- flux assay in HEK-293 with and without KCC2.

The values below come from PMC9263442, “Discovery of Small Molecule KCC2 Potentiators Which Attenuate In Vitro Seizure-Like Activity in Cultured Neurons” (Frontiers in Cell and Developmental Biology, 2022).

The compound `Cc1cccc2sc(N(CCN(C)C)C(=O)CCCS(=O)(=O)c3ccc(F)cc3)nc12` [VU0916219, N-(2-(Dimethylamino)Ethyl)-4-((4-Fluorophenyl)Sulfonyl)-N-(4-Methylbenzo[d]Thiazol-2-yl)Butanamide] yielded an EC50 on KCC2 [1] of 17.1 ± 1.2 µM. `Cc1ccc(S(=O)(=O)CCCC(=O)N(CCN(C)C)c2nc3c(C)cccc3s2)cc1` [VU0500469, N-(2-(Dimethylamino)Ethyl)-N-(4-Methylbenzo[d]Thiazol-2-yl)-4-Tosylbutanamide] yielded an EC50 at KCC2 [2] of 14.2 ± 0.7 µM. Turning to `Cc1cccc2sc(N(CCN(C)C)C(=O)CCCS(=O)(=O)c3ccccc3)nc12` [VU0500458, N-(2-(Dimethylamino)Ethyl)-N-(4-Methylbenzo[d]Thiazol-2-yl)-4-(Phenylsulfonyl)Butanamide], on KCC2 [3], the EC50 was determined as 28.8 ± 4.2 µM.
